From patent publication US6984636B2, “Mitochondrially targeted antioxidants” (Medical Research Council, priority 2002, dated 2006)

Assays:
[1] = system: rat liver mitochondria; assay: Accumulation of Compound 9 in isolated mitochondria (ion selective electrode); type: in vitro ADME
Description: Liver mitochondria were prepared from female Wistar rats by homogenisation followed by differential centrifugation in medium containing 250 mM sucrose, 10 mM Tris-HCL (pH 7.4) and 1 mM EGTA (Chappell, J. B. and Hansford, R. G., In: Subcellular components: preparation and fractionation (Ed. Birnie G D), pp. 77-91. Butterworths, London, 1972, which is incorporated herein by reference.)
An ion selective electrode for compound 9 was prepared by standard procedures (Kamo, N., et al., Journal of Membrane Biology, 49, 105-121 (1979) and Davey, G. P., et al., Biochemical Journal, 288, 439-443 (1992), which are incorporated herein by reference), and activated by soaking in 100 μM compound 9 for 1-3 days. The electrodes were then inserted into an air-tight chamber of an oxygen electrode enabling simultaneous measurement of oxygen consumption and compound 9, as shown in FIG. 1.
The rat liver mitochondria (2 mg protein/ml) were suspended in KCl medium (120 mM KCl, 10 mM HEPES, pH 7.2, 1 mM EGTA) with additions of rotenone (5 μg/ml) and nigericin (0.6 nM) in a stirred 3 ml system at 30° C. Compound 9 was titrated in 1 μM increments (from 650 to 730s on FIG. 1) and the response of the electrode measured over 0-5 μM of Compound 9. This response was logarithmic with respect to the concentration of Compound 9.
To energise the mitochondria, the respiratory substrate succinate (5 mM) was added (at 800s on FIG. 1). These conditions are known to generate a mitochondrial membrane potential of about 180 mV (Burns, et al., Arch Biochem Biophys, 332,60-68 (1995); Burns and Murphy, Arch Biochem Biophys, 339, 33-39 (1997), which are incorporated herein by reference).

[2] = system: superoxide; assay: Standard assay for superoxide dismutase activity (xanthine oxidase/hypoxanthine, acetylated cytochrome c reduction, A550); type: biochemical
Description: To see if Compound 9 is catalytically active as a superoxide dismutase mimetic, a standard assay for superoxide dismutase activity was used (Boveris, A., Methods Enzymol., 105, 429-435 (1984), which is incorporated herein by reference).
The incubation conditions were 50 mM KPi, pH 7.5; 1 mM EGTA; 100 μM DTPA (N,N-bis(2-bis[carboxymethyl]amino)ethyl) glycine) at 30° C. to which was added 0.1 unit/ml xanthine oxidase and acetylated cytochrome c (50 μM). After incubation for 2 min, the background rate was measured for 1 min then hypoxanthine (100 μM) was added to initiate superoxide formation (point X in FIG. 2), which provides a continual flux. The rate of superoxide formation is measured by the rate at which the superoxide reduced cytochrome c(III) to cytochrome c(II), which leads to an increase in light absorption at 550 nm (A550). SOD activity causes the superoxide to be converted to hydrogen peroxide thereby decreasing the rate of reduction of cytochrome c (III). In FIG. 2, the initial rate of reduction of cytochrome c (III) can be seen (line A) and on addition of compound 9 (250 nM) this rate of cytochrome c reduction was decreased due to consumption of the superoxide by compound 9 (line B).
The above experiments were repeated using various concentrations of Compound 9 and the native superoxide dismutase (Cu, Zn SOD) in order to compare their activity.

[3] = system: xanthine oxidase; assay: Control experiments for inhibition of xanthine oxidase; type: biochemical
xanthine oxidase, sequence (P47989 whole entry, species assumed): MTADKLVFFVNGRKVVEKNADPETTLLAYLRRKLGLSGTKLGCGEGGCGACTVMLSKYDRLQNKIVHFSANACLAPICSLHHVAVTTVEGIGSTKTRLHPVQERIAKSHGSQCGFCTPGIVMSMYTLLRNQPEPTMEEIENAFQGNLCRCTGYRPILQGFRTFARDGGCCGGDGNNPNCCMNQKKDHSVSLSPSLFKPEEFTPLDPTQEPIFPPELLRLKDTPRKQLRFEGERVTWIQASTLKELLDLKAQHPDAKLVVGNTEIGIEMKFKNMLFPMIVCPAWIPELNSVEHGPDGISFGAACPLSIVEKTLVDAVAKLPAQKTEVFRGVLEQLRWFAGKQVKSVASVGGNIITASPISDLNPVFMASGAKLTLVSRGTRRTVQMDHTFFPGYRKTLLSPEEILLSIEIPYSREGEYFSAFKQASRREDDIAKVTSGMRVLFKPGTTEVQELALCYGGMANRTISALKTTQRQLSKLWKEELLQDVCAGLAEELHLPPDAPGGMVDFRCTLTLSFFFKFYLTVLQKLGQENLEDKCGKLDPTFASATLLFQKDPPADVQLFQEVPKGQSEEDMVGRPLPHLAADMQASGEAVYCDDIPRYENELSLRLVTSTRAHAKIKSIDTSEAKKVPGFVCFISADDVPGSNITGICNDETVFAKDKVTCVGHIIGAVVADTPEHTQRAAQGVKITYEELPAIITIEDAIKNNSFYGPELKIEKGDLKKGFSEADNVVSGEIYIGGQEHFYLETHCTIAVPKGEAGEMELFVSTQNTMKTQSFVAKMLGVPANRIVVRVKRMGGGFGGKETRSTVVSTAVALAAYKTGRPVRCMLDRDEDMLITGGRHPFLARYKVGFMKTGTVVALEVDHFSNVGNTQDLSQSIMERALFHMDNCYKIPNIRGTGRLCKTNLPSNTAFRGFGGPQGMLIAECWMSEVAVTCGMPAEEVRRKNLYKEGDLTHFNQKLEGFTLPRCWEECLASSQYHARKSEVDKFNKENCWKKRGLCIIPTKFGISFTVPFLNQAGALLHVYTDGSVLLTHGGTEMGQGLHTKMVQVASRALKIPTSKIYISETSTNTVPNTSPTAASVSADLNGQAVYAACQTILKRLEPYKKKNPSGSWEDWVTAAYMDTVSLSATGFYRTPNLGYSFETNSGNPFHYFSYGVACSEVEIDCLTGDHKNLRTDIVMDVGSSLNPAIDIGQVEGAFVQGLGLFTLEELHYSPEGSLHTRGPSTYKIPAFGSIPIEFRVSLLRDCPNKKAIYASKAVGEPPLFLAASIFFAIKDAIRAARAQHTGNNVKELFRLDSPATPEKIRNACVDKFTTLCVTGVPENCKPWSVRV

concentration of the compound within mitochondria ([1]; energised (succinate 5 mM) rat liver mitochondria 2 mg protein/ml, KCl medium pH 7.2, 30° C., 0-5 μM compound): about 1.25 nmol/mg protein
accumulation by energised mitochondria ([1]; energised rat liver mitochondria, membrane potential about 180 mV): ~500 fold
concentration of compound outside the mitochondria after energising with succinate ([1]; succinate 5 mM added, FIG. 1): falls rapidly
rate of cytochrome c reduction ([2]; compound 9 at 250 nM, FIG. 2 line B versus control line A): decreased
SOD activity of 1 nmol compound expressed as activity of the native enzyme CuZnSOD ([2]; per 1 nmol Compound 9, various concentrations, FIG. 3): about 1 unit
inhibition of the activity of xanthine oxidase [3]: does not inhibit
SMILES: [Cl-].[Cl-].[Cl-].[Mn+2].c1ccc([P+](CCCSc2cc3nc(c2)CNC2CCCCC2NCCNC2CCCCC2NC3)(c2ccccc2)c2ccccc2)cc1 [Compound 9, Manganese(II) dichloro((4R, 9R, 14R, 19R)-24-(3-triphenylphosphoniopropane-1-thio)-3, 10, 13, 20, 26-pentaazatetracyclo[20.3.1.0.^4,9.0^14,19]hexacosa-1 (26),-22(23),24-triene) chloride]
time for reversal of accumulation on addition of the uncoupler FCCP ([1]; FCCP 332 nM added to dissipate the membrane potential): < 10 s
